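Tested at 5 concentrations; 48 h exposure; 96-well plates; endpoints linearly interpolated, else capped at highest concentration. GI50 is the concentration that inhibits growth by half.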 Calls of active or inactive are those of the source. Rule as the data show it: active = GI50 up to about 1.1 µM and inactive = higher.
How the values were obtained:
Test in all cases: growth of human tumour cells (NCI), 48 h
[1] = tested on: A498
[2] = tested on: A549
[3] = tested on: CCRF-CEM
[4] = tested on: DMS-114
[5] = tested on: HCC 2998
[6] = tested on: HCT-116
[7] = tested on: HOP-92
[8] = tested on: LOX IMVI
[9] = tested on: MOLT-4
[10] = tested on: NCI-H23
[11] = tested on: NCI-H460
[12] = tested on: NCI-H522
[13] = tested on: OVCAR-4
[14] = tested on: OVCAR-5
[15] = tested on: OVCAR-8
[16] = tested on: SNB-19
[17] = tested on: SR
[18] = tested on: UACC-62

Measured: GI50

N#C/C(c1nc2ccccc2[nH]1)=c1\s/c(=C/c2ccccc2)c(=O)n1-c1ccccc1
inactive: [1] 65.5 µM | [2] > 100 µM | [3] 98.9 µM | [4] > 100 µM | [5] > 100 µM | [6] > 100 µM | [7] > 100 µM | [8] > 100 µM | [9] 9.89 µM | [10] > 100 µM | [11] 65.2 µM | [12] > 100 µM | [13] > 100 µM | [14] > 100 µM | [15] > 100 µM | [16] > 100 µM | [17] > 100 µM | [18] > 100 µM

CN(C)C(=S)/N=c1\ss/c(=N/c2ccccc2)n1C
inactive: [1] 28.9 µM | [2] 59.2 µM | [3] > 100 µM | [4] 77.1 µM | [5] > 100 µM | [6] 38.5 µM | [7] 30.5 µM | [8] > 100 µM | [9] > 100 µM | [10] > 100 µM | [11] > 100 µM | [13] 50.6 µM | [14] > 100 µM | [15] 73.6 µM | [16] 58.3 µM | [17] > 100 µM | [18] > 100 µM

CCCCCCCCCCNC(=S)OCCCC
inactive: [1] 25.6 µM | [2] 26 µM | [3] 17.1 µM | [4] 22.9 µM | [5] 24.6 µM | [6] 18.3 µM | [7] 16.7 µM | [8] 15.9 µM | [9] 14.7 µM | [10] 23.1 µM | [11] 21.9 µM | [12] 18.6 µM | [13] 34 µM | [14] 11.3 µM | [15] 33.3 µM | [16] 46.8 µM | [17] 17.4 µM | [18] 22.5 µM

CC(=O)Oc1cc(C)c2c(c1OC(C)=O)CC1(O2)[C@@H](C)CCC2[C@@]3(C)CC[C@H](OC(C)=O)C(C)(C)C3CC[C@]21C (some centres undefined)
inactive: [1] 7.46 µM | [2] 5.3 µM | [4] 2.29 µM | [5] 5.42 µM | [6] 4.19 µM | [7] 3.14 µM | [8] 4.24 µM | [9] 4.57 µM | [10] 2.19 µM | [11] 3.45 µM | [13] > 10 µM | [14] 5.46 µM | [15] 3.01 µM | [16] 7.31 µM | [17] 3.03 µM | [18] 2.46 µM

CC1(C)C(=O)C(C)(C)C1=NN
inactive: [2] > 100 µM | [4] > 100 µM | [5] > 100 µM | [6] > 100 µM | [7] > 100 µM | [8] > 100 µM | [9] > 100 µM | [10] > 100 µM | [11] > 100 µM | [12] > 100 µM | [13] > 100 µM | [14] > 100 µM | [15] > 100 µM | [16] > 100 µM | [17] > 100 µM | [18] > 100 µM

CC(C)CCC[C@@H](C)C1CCC2[C@@H]3CC=C4C[C@@H](C(=O)NCCN(C)C)CC[C@]4(C)C3CC[C@@]21C (some centres undefined)
inactive: [1] 32.5 µM | [2] 23.1 µM | [3] 23.8 µM | [4] 14.8 µM | [5] 23.5 µM | [7] 5.89 µM | [8] 51.4 µM | [9] 31.1 µM | [10] 18.3 µM | [11] 32.9 µM | [12] 41 µM | [13] 30.4 µM | [14] > 100 µM | [15] 33.1 µM | [16] 28.6 µM | [18] 42.4 µM

N#C/N=C(\NCCc1c[nH]c2ccccc12)NCc1ccccc1
inactive: [2] 60.5 µM | [3] 29.9 µM | [4] 32.9 µM | [5] 32.5 µM | [6] 50.9 µM | [8] 75.9 µM | [9] 34.9 µM | [10] > 100 µM | [11] 26.8 µM | [13] 61.4 µM | [14] > 100 µM | [15] > 100 µM | [16] 68.9 µM | [17] 32.5 µM | [18] 53.6 µM

Clc1cc(Cc2cc(Cl)c(Cl)c3c2OCOC3)c2c(c1Cl)COCO2
inactive: [1] 28.4 µM | [2] 40.9 µM | [3] 30.1 µM | [4] 45.5 µM | [5] > 100 µM | [6] 36.4 µM | [7] 16.9 µM | [8] 53.1 µM | [9] 56.2 µM | [10] > 100 µM | [11] 43.8 µM | [12] 41.9 µM | [13] 18.7 µM | [14] > 100 µM | [15] 36.8 µM | [16] 38 µM | [17] 55.2 µM | [18] 49.1 µM

Source: ChEMBL document CHEMBL1201862, “PubChem BioAssay data set” (2004)
